Experimental data from patent publication US8592597B2, “Pyrrole compounds” (Takeda Pharmaceutical Company Limited, priority 2008, dated 2013).
Counter-ions that a name gives are not always drawn.

Assays:
[1] = target: T1, proton, potassium-adenosine triphosphatase (H+/K+-ATPase) (Sus scrofa, UniProt P19156); assay: Proton potassium-adenosine triphosphatase (H+,K+-ATPase) inhibitory activity test; format: biochemical; conditions: swine gastric mucous membrane microsomal fraction, pH 6.5, 37° C.
T1 construct: a gastric mucous membrane microsomal fraction was prepared from the stomach of swine; from tissue; host or cells: swine stomach, gastric mucous membrane microsomal fraction
T1 sequence (P19156 2-1034 limits assumed): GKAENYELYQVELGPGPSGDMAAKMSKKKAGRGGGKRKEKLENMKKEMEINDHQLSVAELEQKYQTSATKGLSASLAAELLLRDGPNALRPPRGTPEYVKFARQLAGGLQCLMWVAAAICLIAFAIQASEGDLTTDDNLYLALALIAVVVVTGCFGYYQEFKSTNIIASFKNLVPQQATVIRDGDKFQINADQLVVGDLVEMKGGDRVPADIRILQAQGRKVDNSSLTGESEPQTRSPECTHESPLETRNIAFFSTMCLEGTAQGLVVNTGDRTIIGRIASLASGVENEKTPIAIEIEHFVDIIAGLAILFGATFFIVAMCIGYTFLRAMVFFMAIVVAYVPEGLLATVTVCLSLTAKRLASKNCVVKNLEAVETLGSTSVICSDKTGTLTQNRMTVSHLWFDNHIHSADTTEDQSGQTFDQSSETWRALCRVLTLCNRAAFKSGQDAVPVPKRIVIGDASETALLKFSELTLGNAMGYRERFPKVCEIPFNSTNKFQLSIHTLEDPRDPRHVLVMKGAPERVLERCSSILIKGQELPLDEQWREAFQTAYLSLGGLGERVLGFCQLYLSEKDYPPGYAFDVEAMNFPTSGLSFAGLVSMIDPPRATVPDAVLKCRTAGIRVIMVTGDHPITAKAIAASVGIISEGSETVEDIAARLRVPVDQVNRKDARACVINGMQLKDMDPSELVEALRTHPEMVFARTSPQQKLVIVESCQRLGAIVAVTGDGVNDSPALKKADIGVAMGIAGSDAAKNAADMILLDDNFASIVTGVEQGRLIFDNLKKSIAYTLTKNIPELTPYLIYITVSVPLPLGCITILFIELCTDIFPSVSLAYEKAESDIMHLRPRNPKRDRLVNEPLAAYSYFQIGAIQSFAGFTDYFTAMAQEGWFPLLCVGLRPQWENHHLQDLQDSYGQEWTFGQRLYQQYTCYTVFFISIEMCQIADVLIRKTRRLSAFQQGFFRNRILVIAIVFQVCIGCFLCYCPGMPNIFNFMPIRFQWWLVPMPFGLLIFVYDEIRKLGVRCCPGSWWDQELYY
T1 sequence (P18434 whole entry partner): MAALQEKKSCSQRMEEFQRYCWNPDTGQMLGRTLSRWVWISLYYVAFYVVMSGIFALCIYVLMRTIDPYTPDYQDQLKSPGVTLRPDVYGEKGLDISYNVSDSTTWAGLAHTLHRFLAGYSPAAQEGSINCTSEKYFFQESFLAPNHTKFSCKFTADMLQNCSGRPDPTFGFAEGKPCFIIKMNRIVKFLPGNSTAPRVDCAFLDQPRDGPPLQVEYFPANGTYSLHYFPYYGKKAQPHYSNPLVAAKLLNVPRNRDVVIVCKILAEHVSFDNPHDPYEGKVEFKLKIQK
Description: According to the method [Biochim. Biophys. Acta, 728, 31 (1983)] of Wallmark et al., a gastric mucous membrane microsomal fraction was prepared from the stomach of swine. First, the stomach was removed, washed with tap water, immersed in 3 mol/L brine, and the surface of the mucous membrane was wiped with a paper towel. The gastric mucous membrane was detached, chopped, and homogenized in a 0.25 mol/L saccharose solution (pH 6.8) containing 1 mmol/L EDTA and 10 mmol/L tris-hydrochloric acid using polytron (Kinematica). The obtained homogenate was centrifuged at 20,000×g for 30 min and the supernatant was centrifuged at 100,000×g for 90 min. The precipitate was suspended in 0.25 mol/L saccharose solution, superimposed on a 0.25 mol/L saccharose solution containing 7.5% Ficoll, and centrifuged at 100,000×g for 5 hr. The fraction containing the interface between the both layers was recovered, and centrifugally washed with 0.25 mol/L saccharose solution. The obtained microsomal fraction was used as a proton, potassium-adenosine triphosphatase standard product.
To 40 μL of a 50 mmol/L HEPES-tris buffer (5 mmol/L magnesium chloride, 10 mmol/L potassium chloride, 10 μmol/L valinomycin, pH=6.5) containing 2.5 μg/mL (based on the protein concentration) of the enzyme standard product was added a test compound (5 μL) dissolved in a 10% aqueous dimethyl sulfoxide solution, and the mixture was incubated at 37° C. for 30 min. The enzyme reaction was started by adding 5 μL of a 2 mmol/L adenosine triphosphate tris salt solution (50 mmol/L HEPES-tris buffer (5 mmol/L magnesium chloride, pH 6.5)). The enzyme reaction was carried out at 37° C. for 20 min, and 15 μL of a malachite green solution (0.12% malachite green solution in sulfuric acid (2.5 mol/L), 7.5% ammonium molybdate and 11% Tween 20 were mixed at a ratio of 100:25:2) was added to quench the reaction. After allowing to stand at room temperature for 15 min, the resulting reaction product of inorganic phosphorus with malachite green was colorimetrically determined at a wavelength of 620 nm. In addition, the amount of the inorganic phosphoric acid in the reaction solution free of potassium chloride was measured in the same manner, which was subtracted from the inorganic phosphoric acid amount in the presence of potassium chloride to determine the proton, potassium-adenosine triphosphatase activity. The inhibitory rate (%) was determined from the activity value of the control and the activity values of various concentrations of the test compound, and the 50% inhibitory concentration (IC50) of the proton, potassium-adenosine triphosphatase was determined.

HepG2 = assay: ATP content test; format: cell-based, Human; conditions: HepG2, 100 μM, culture for one day, relative value to control (without drug)
Description: (§1) Human liver cancer-derived cell line HepG2 (ATCC No. HB-8065) was passaged using Dulbecco's Modified Eagle medium (DMEM; Invitrogen) containing 10% fetal bovine serum (FBS; TRACE SCIENTIFIC LTD.), 1 mmol/L sodium pyruvate (Invitrogen), 2 mmol/L L-glutamine (Invitrogen), 50 IU/mL penicillin (Invitrogen) and 50 μg/mL streptomycin (Invitrogen) at 5% CO2, 37° C. The test reagent was prepared with DMSO to 10 mM, and further diluted with DMEM medium containing 0.5% FBS, 1 mmol/L sodium pyruvate, 2 mmol/L L-glutamine, 50 IU/mL penicillin and 50 μg/mL streptomycin to a final concentration of DMSO of 0.1%. HepG2 (2×10^4 cells/well) was cultured on a 96 well white plate (Costar) with the test reagent at 5% CO2, 37° C. After culture for one day, the intracellular ATP content was measured using ATPLITE™ (PerkinElmer Life Sciences). The results are shown in Table 4 (n≧3, average value ±SD) as a relative value (%) to control (without addition of drug).

[2] = tested on: Caspase-3/7 activity in HepG2 cells; assay: Caspase-3/7 activity test; format: cell-based, Human; conditions: HepG2, 100 μM, culture for one day, relative to maximum with Staurosporine (100%) and no reagent (0%)
Description: as §1
The Caspase-3/7 activity in the cells cultured for one day by a method similar to that in Experimental Example 3 was measured using CASPASE-GLO 3/7 Assay (Promega). The results are shown in Table 4 (n≧3, average value ±SD) as relative activity (%) of each reagent based on the maximum value of Caspase-3/7 activity when exposed to Staurosporine (100%), and the activity without addition of a test reagent (0%).

CNCc1cn(S(=O)(=O)c2cncc(F)c2)c(-c2cccnc2F)c1F [Example 26, 1-{4-Fluoro-5-(2-fluoropyridin-3-yl)-1-[(5-fluoropyridin-3-yl)sulfonyl]-1H-pyrrol-3-yl}-N-methylmethanamine succinate]
IC50 [1]: 130 nM

CNCc1cn(S(=O)(=O)c2cc(C)ccn2)c(-c2cccnc2F)c1F [Example 2, 1-{4-Fluoro-5-(2-fluoropyridin-3-yl)-1-[(4-methylpyridin-2-yl)sulfonyl]-1H-pyrrol-3-yl}-N-methylmethanamine hydrochloride]
ATP content (%, 100 μM) (HepG2): 85.5% | Caspase-3/7 activity (%, 100 μM) [2]: −1.1% | IC50 [1]: 100 nM

CNCc1cn(S(=O)(=O)c2ccc(F)cn2)c(-c2cccnc2F)c1F [Example 3, 1-{4-Fluoro-5-(2-fluoropyridin-3-yl)-1-[(5-fluoropyridin-2-yl)sulfonyl]-1H-pyrrol-3-yl}-N-methylmethanamine hydrochloride]
ATP content (%, 100 μM) (HepG2): 86.5% | Caspase-3/7 activity (%, 100 μM) [2]: −0.5% | IC50 [1]: 100 nM

CNCc1cn(S(=O)(=O)c2cncc(F)c2)c(-c2cccnc2F)c1F [Example 5, 1-{4-Fluoro-5-(2-fluoropyridin-3-yl)-1-[(5-fluoropyridin-3-yl)sulfonyl]-1H-pyrrol-3-yl}-N-methylmethanamine hydrochloride]
ATP content (%, 100 μM) (HepG2): 88.9% | Caspase-3/7 activity (%, 100 μM) [2]: 0.3% | IC50 [1]: 200 nM

CNCc1cn(S(=O)(=O)c2cc(C)ccn2)c(-c2cccnc2F)c1F [Example 24, 1-{4-Fluoro-5-(2-fluoropyridin-3-yl)-1-[(4-methylpyridin-2-yl)sulfonyl]-1H-pyrrol-3-yl}-N-methylmethanamine succinate]
IC50 [1]: 140 nM

CNCc1cn(S(=O)(=O)c2cc(OC)ccn2)c(-c2cccnc2F)c1F [Example 4, 1-{4-Fluoro-5-(2-fluoropyridin-3-yl)-1-[(4-methoxypyridin-2-yl)sulfonyl]-1H-pyrrol-3-yl}-N-methylmethanamine hydrochloride]
ATP content (%, 100 μM) (HepG2): 84.5% | Caspase-3/7 activity (%, 100 μM) [2]: −0.6% | IC50 [1]: 140 nM

CNCc1cn(S(=O)(=O)c2cc(C)ccn2)c(-c2cccnc2F)c1F [Example 23, 1-{4-Fluoro-5-(2-fluoropyridin-3-yl)-1-[(4-methylpyridin-2-yl)sulfonyl]-1H-pyrrol-3-yl}-N-methylmethanamine fumarate]
IC50 [1]: 83 nM

CNCc1cn(S(=O)(=O)c2ccc(C)nc2)c(-c2cccnc2F)c1F [Example 8, 1-{4-Fluoro-5-(2-fluoropyridin-3-yl)-1-[(6-methylpyridin-3-yl)sulfonyl]-1H-pyrrol-3-yl}-N-methylmethanamine 0.5 fumarate]
ATP content (%, 100 μM) (HepG2): 76.7% | Caspase-3/7 activity (%, 100 μM) [2]: 2.4% | IC50 [1]: 180 nM

CNCc1cn(S(=O)(=O)c2ccc(OC)cn2)c(-c2cccnc2F)c1F [Example 10, 1-{4-Fluoro-5-(2-fluoropyridin-3-yl)-1-[(5-methoxypyridin-2-yl)sulfonyl]-1H-pyrrol-3-yl}-N-methylmethanamine hydrochloride]
ATP content (%, 100 μM) (HepG2): 80.0% | Caspase-3/7 activity (%, 100 μM) [2]: 0.9% | IC50 [1]: 280 nM

CNCc1cn(S(=O)(=O)c2cncc(F)c2)c(-c2cccnc2F)c1F [Example 25, 1-{4-Fluoro-5-(2-fluoropyridin-3-yl)-1-[(5-fluoropyridin-3-yl)sulfonyl]-1H-pyrrol-3-yl}-N-methylmethanamine 0.5 fumarate]
IC50 [1]: 200 nM

CNCc1cn(S(=O)(=O)c2cncc(F)c2)c(-c2cccnc2F)c1F [Example 27, 1-{4-Fluoro-5-(2-fluoropyridin-3-yl)-1-[(5-fluoropyridin-3-yl)sulfonyl]-1H-pyrrol-3-yl}-N-methylmethanamine L-tartrate]
IC50 [1]: 160 nM
